Experimental data published in patent publication US20260152779A1, “GENETICALLY ENGINEERED FUMONISIN SENSITIVE YEAST” (FFOQSI GMBH, priority 2022, published 2026).
Read-outs that look alike come from different tables or passages of the source.

Columns and labels:
[1] = test system: wild type yeast; assay: growth inhibition of wild type yeast by FB1; assay type: cell-based, Saccharomyces cerevisiae; conditions: at a concentration of 1000 μM FB1 or more
Excerpt: Growth rates and growth inhibition can be determined by any method well known in the art, such as, but not limited to, determining cell number, using e.g. a hemocytometer, determining cell viability, e.g. using methylene blue staining, or determining relative growth calculated as the resultant optical density ratio of toxin treated cultures to untreated controls. Also yeast dry weight can be determined or conductance change can be measured during yeast growth, employing direct and indirect methods.

[2] = test system: YRU94ML; assay: spotting on YPD agar plates with crude FB1, strain YRU94ML; assay type: cell-based, Saccharomyces cerevisiae; conditions: crude fumonisin stock (FB1+FB2+FB3) containing >70% FB1, 30° C., 5 days
Method: (§1) In a further setting, the sensitive yeast strains YRU74, YRU94ML and YTKT33 were grown in YPD (1% yeast extract, 2% peptone, 2% glucose) overnight alongside the original resistant YPH500 strain. The next day, they were rediluted to an OD600 of 0.1. After reaching exponential growth (>0.3) they were diluted to an OD of 0.1 and diluted further (1:10 and 1:100) for spottings on YPD agar plates alongside containing different concentrations of the crude fumonisin stock (FB1+FB2+FB3, measured via LC-MS/MS) containing >70% FB1. The concentrations used for the prepared FB1 plates were calculated based on the measured FB1. 3 μl of each strain/dilution was pipetted onto the plates and left to grow at 30° C. for 5 days. The photos of these plates are shown above. […] Three different dilutions of each strain were spotted on every plate. […] Both YRU94ML and YTKT33 growth is inhibited at a concentration of 250 μM FB1.

[3] = test system: YTKT33; assay: spotting on YPD agar plates with crude FB1, strain YTKT33; assay type: cell-based, Saccharomyces cerevisiae; conditions: crude fumonisin stock (FB1+FB2+FB3) containing >70% FB1, 30° C., 5 days
Method: as §1

[4] = test system: YTKT33; assay: spotting on SC-URA agar plates with FB1, strain YTKT33; assay type: cell-based, Saccharomyces cerevisiae; conditions: SC-URA agar plates, 87,88% pure FB1, empty pYes2-PTEF1 vector, 30° C., 5 days
Method: In a further setting, sensitive yeast strains YRU74, YRU94ML, YTKT33 and the original yeast strain YPH500 were transformed with the empty pYes2-PTEF1 vector containing the marker URA3, so that they could grow on Synthetic Complete media lacking uracil (SC-URA). They were grown in SC-URA overnight and rediluted to an OD600 of 0.1 in the morning. After reaching exponential growth (OD600>0.3), they were diluted again for spottings on plates containing 87,88% pure FB1. 3 μl of each strain/dilution was pipetted onto the plates and left to grow at 30° C. for 5 days. The photos of these plates are shown above. […] Three spots were spotted on each plate for every strain.

[5] = test system: Arabidopsis; conditions: bioassay e.g. 10 days; cited from earlier work
[6] = test system: brine shrimp (Artemia salina); conditions: cited from earlier work
[7] = test system: primary rat hepatocytes; conditions: read-out: acute cytotoxicity (IC50 values); cited from earlier work
[8] = test system: human HepG2 cells; conditions: read-out: acute cytotoxicity (IC50); cited from earlier work
[9] = test system: YPH500; assay: paper disk inhibition zone assay, wild-type strain YPH500; assay type: cell-based, Saccharomyces cerevisiae
[10] = test system: YTKT33; assay: FB1 resistance conferred by candidate genes expressed in YTKT33 on SC-URA FB1 plates; assay type: cell-based, Saccharomyces cerevisiae; conditions: SC-URA plates with different FB1 concentrations, spottings OD600 0.1, 0.01, 0.001
Excerpt: The plasmids described by Janevska et al., 2020, were kindly provided by Dr. Vito Valiante. Plasmid pYes2-PTEF1 (=empty vector, TEF1 promoter) was used to express different genes assumed to confer resistance against FB1. Candidate genes were coned behind the TEF1 promoter into that plasmid and subsequently transformed into the sensitive yeast strain YTKT33 for testing.
YOR1 (with endogenous promoter on an episomal (multicopy 2 μm) plasmid) and FvCER1 (positive control, resistance conferring ceramide synthase from Fusarium verticillioides) were used as controls. Sphingopyxis sp.

For Fumonisin B1 [FB1], the “growth inhibition of wild type yeast” value [1] was “does not show significant growth inhibition”, the “FB1 concentration at which growth is inhibited” value [2] was 250 µM and the “FB1 concentration at which growth is inhibited” value [3] was 250 µM. The “FB1 concentration at which growth is inhibited” value [4] was roughly 100 µM, the “FB1 concentration at which seed germination and root development is already strongly inhibited” value [5] was 1 µM and the IC50 ([6]; 24 h incubation) was roughly 10 µM. For the same molecule, the IC50 ([6]; 48 h incubation) was 1.7 µM, the IC50 [7] was 2000 µM and the IC50 [8] was 399 µM.

In the case of fumonisin, the “development of an inhibition zone” value [9] is reported as “did not result in the development of an inhibition zone”.

B1: YOR1: yeast ABC transporter gene with endogenous promoter on an episomal multicopy plasmid, used as control (protein, UniProt P53049 1-1477, looked up)
Oligomycin resistance …: MTITVGDAVSETELENKSQNVVLSPKASASSDISTDVDKDTSSSWDDKSLLPTGEYIVDRNKPQTYLNSDDIEKVTESDIFPQKRLFSFLHSKKIPEVPQTDDERKIYPLFHTNIISNMFFWWVLPILRVGYKRTIQPNDLFKMDPRMSIETLYDDFEKNMIYYFEKTRKKYRKRHPEATEEEVMENAKLPKHTVLRALLFTFKKQYFMSIVFAILANCTSGFNPMITKRLIEFVEEKAIFHSMHVNKGIGYAIGACLMMFVNGLTFNHFFHTSQLTGVQAKSILTKAAMKKMFNASNYARHCFPNGKVTSFVTTDLARIEFALSFQPFLAGFPAILAICIVLLIVNLGPIALVGIGIFFGGFFISLFAFKLILGFRIAANIFTDARVTMMREVLNNIKMIKYYTWEDAYEKNIQDIRTKEISKVRKMQLSRNFLIAMAMSLPSIASLVTFLAMYKVNKGGRQPGNIFASLSLFQVLSLQMFFLPIAIGTGIDMIIGLGRLQSLLEAPEDDPNQMIEMKPSPGFDPKLALKMTHCSFEWEDYELNDAIEEAKGEAKDEGKKNKKKRKDTWGKPSASTNKAKRLDNMLKDRDGPEDLEKTSFRGFKDLNFDIKKGEFIMITGPIGTGKSSLLNAMAGSMRKTDGKVEVNGDLLMCGYPWIQNASVRDNIIFGSPFNKEKYDEVVRVCSLKADLDILPAGDMTEIGERGITLSGGQKARINLARSVYKKKDIYLFDDVLSAVDSRVGKHIMDECLTGMLANKTRILATHQLSLIERASRVIVLGTDGQVDIGTVDELKARNQTLINLLQFSSQNSEKEDEEQEAVVAGELGQLKYESEVKELTELKKKATEMSQTANSGKIVADGHTSSKEERAVNSISLKIYREYIKAAVGKWGFIALPLYAILVVGTTFCSLFSSVWLSYWTENKFKNRPPSFYMGLYSFFVFAAFIFMNGQFTILCAMGIMASKWLNLRAVKRILHTPMSYIDTTPLGRILNRFTKDTDSLDNELTESLRLMTSQFANIVGVCVMCIVYLPWFAIAIPFLLVIFVLIADHYQSSGREIKRLEAVQRSFVYNNLNEVLGGMDTIKAYRSQERFLAKSDFLINKMNEAGYLVVVLQRWVGIFLDMVAIAFALIITLLCVTRAFPISAASVGVLLTYVLQLPGLLNTILRAMTQTENDMNSAERLVTYATELPLEASYRKPEMTPPESWPSMGEIIFENVDFAYRPGLPIVLKNLNLNIKSGEKIGICGRTGAGKSTIMSALYRLNELTAGKILIDNVDISQLGLFDLRRKLAIIPQDPVLFRGTIRKNLDPFNERTDDELWDALVRGGAIAKDDLPEVKLQKPDENGTHGKMHKFHLDQAVEEEGSNFSLGERQLLALTRALVRQSKILILDEATSSVDYETDGKIQTRIVEEFGDCTILCIAHRLKTIVNYDRILVLEKGEVAEFDTPWTLFSQEDSIFRSMCSRSGIVENDFENRS
In the case of B1, the “resistance to FB1 conferred by the expressed gene” value [10] is reported as “weak resistance”.
